Laboratory results as given in the supplement of paper PMC10307832.

How the values were obtained:
Test in all cases: relative viability (nuclei count vs DMSO), 5 days (fraction); higher = more cells survive
[1] = compound: C1=CC2=C(C=C(C(=C2N=C1)O)N=NC3=CC4=C(C=C3)C=C(C=C4)S(=O)(=O)O)S(=O)(=O)O + CCNC(=O)c1noc(-c2cc(C(C)C)c(O)cc2O)c1-c1ccc(CN2CCOCC2)cc1 [Luminespib] (partner 0.01 µM)
How it was run: (§1)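 The day after seeding in 1536-well plates, lung cancer cell lines were treated by pin tool with a single drug, or with a fixed anchor-drug dose together with five library-drug doses (not always all listed) in √10 steps. After 5 days, a combined fix-and-stain solution (final 0.05% Triton X-100, 1% formaldehyde, 1 ug/ml Hoechst) was added. Nuclei counted on 4× images gave relative viability as treated counts over vehicle counts, reported as the median of duplicate plates.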

[2] = compound: C1=CC2=C(C=C(C(=C2N=C1)O)N=NC3=CC4=C(C=C3)C=C(C=C4)S(=O)(=O)O)S(=O)(=O)O + N=C(N)NC(=N)NCCc1ccccc1 [Phenformin] (partner 250 µM)
How it was run: as §1

[3] = compound: C1=CC2=C(C=C(C(=C2N=C1)O)N=NC3=CC4=C(C=C3)C=C(C=C4)S(=O)(=O)O)S(=O)(=O)O + Nc1ncn([C@H]2C[C@H](O)[C@@H](CO)O2)c(=O)n1 [Decitabine] (partner 2 µM)
How it was run: as §1

AT-7519 + Linsitinib = compound: O=C(NC1CCNCC1)c1n[nH]cc1NC(=O)c1c(Cl)cccc1Cl [AT-7519] + C[C@]1(O)C[C@@H](c2nc(-c3ccc4ccc(-c5ccccc5)nc4c3)c3c(N)nccn32)C1 [Linsitinib] (partner 1 µM)
How it was run: as §1

Cell Line | relative viability ([1]; first compound 0.08 µM) | relative viability ([1]; first compound 0.253 µM) | relative viability ([1]; first compound 0.8 µM) | relative viability ([1]; first compound 2.53 µM) | relative viability ([1]; first compound 8 µM) | relative viability ([2]; first compound 0.08 µM) | relative viability ([2]; first compound 0.253 µM) | relative viability ([2]; first compound 0.8 µM) | relative viability ([2]; first compound 2.53 µM) | relative viability ([2]; first compound 8 µM) | relative viability ([3]; first compound 0.08 µM) | relative viability ([3]; first compound 0.253 µM) | relative viability ([3]; first compound 0.8 µM) | relative viability ([3]; first compound 2.53 µM) | relative viability ([3]; first compound 8 µM) | relative viability (AT-7519 + Linsitinib; first compound 0.01 µM) | relative viability (AT-7519 + Linsitinib; first compound 0.03162 µM) | relative viability (AT-7519 + Linsitinib; first compound 0.3162 µM) | relative viability (AT-7519 + Linsitinib; first compound 1 µM)
NCI-H1437 | 1.21 | 1.11 | 1.13 | 1.16 | 0.571 | 0.257 | 0.242 | 0.251 | 0.303 | 0.317 | 0.603 | 0.567 | 0.655 | 0.586 | 0.566 | 1.14 | 1.17 | 0.81 | 0.344
NCI-H460 | 0.0298 | 0.032 | 0.13 | 0.022 | 0.0231 | 0.609 | 0.479 | 0.502 | 0.486 | 0.596 | 0.506 | 0.487 | 0.501 | 0.497 | 0.387 | 0.712 | 0.63 | 0.159 | 0.0184
NCI-H1666 | 1.09 | 0.912 | 1.07 | 0.978 | 0.596 | 0.536 | 0.579 | 0.586 | 0.596 | 0.566 | 0.821 | 0.711 | 0.716 | 0.815 | 0.747 | 0.727 | 0.784 | 0.807 | 0.376
NCI-H1651 | 1.25 | 0.869 | 0.877 | 0.86 | 0.836 | 0.386 | 0.331 | 0.385 | 0.329 | 0.337 | 0.79 | 0.548 | 0.659 | 0.658 | 0.535 | 1.16 | 0.963 | 0.917 | 0.886
NCI-H1755 | 0.431 | 0.378 | 0.395 | 0.41 | 0.472 | 0.597 | 0.59 | 0.605 | 0.63 | 0.651 | 0.771 | 0.679 | 0.714 | 0.737 | 0.698 | 1 | 0.993 | 1.03 | 0.967
NCI-H661 | 0.932 | 0.887 | 0.847 | 0.945 | 0.849 | 0.286 | 0.291 | 0.269 | 0.279 | 0.312 | 0.566 | 0.446 | 0.58 | 0.551 | 0.573 | 0.46 | 0.513 | 0.538 | 0.343
HARA | 1.27 | 0.913 | 0.796 | 0.803 | 0.761 | 0.467 | 0.459 | 0.464 | 0.544 | 0.479 | 0.69 | 0.584 | 0.52 | 0.519 | 0.563 | 1.15 | 0.92 | 0.945 | 0.671
NCI-H596 | 1.16 | 1.09 | 1.05 | 1.11 | 0.832 | 0.749 | 0.735 | 0.697 | 0.841 | 0.759 | 1.1 | 0.954 | 1.01 | 1.02 | 1.38 | 1.04 | 0.91 | 0.973 | 0.897
NCI-H23 | 0.202 | 0.21 |  | 0.194 | 0.209 | 0.869 | 0.805 | 0.694 | 0.786 | 0.83 | 0.331 | 0.304 | 0.335 | 0.311 | 0.302 | 0.591 | 0.619 | 0.523 | 0.255
LCLC-97TM1 | 0.963 | 0.678 | 0.714 | 0.805 | 0.801 | 0.403 | 0.491 | 0.434 | 0.45 | 0.384 | 0.217 | 0.29 | 0.198 | 0.25 | 0.204 | 0.189 | 0.155 | 0.17 | 0.151
EPLC-272H | 0.264 | 0.385 | 0.388 | 0.283 | 0.383 | 0.284 | 0.319 | 0.292 | 0.28 | 0.323 | 0.415 | 0.372 | 0.37 | 0.438 | 0.375 | 0.999 | 1.1 | 0.945 | 1.18
NCI-H1915 | 0.842 | 0.773 | 0.877 | 0.78 | 0.82 | 0.368 | 0.381 | 0.352 | 0.357 | 0.37 | 0.25 | 0.25 | 0.268 | 0.263 | 0.274 | 1.08 | 1.05 | 1.11 | 0.909
NCI-H2405 | 0.891 | 0.79 | 0.632 | 0.827 | 0.753 | 0.382 | 0.384 | 0.371 | 0.342 | 0.362 | 0.744 | 0.685 | 0.7 | 0.828 | 0.742 | 1.19 | 0.847 | 0.865 | 0.473
NCI-H322M | 1.04 | 0.828 | 0.859 | 0.847 | 1.12 | 0.877 | 0.744 | 0.727 | 0.705 | 0.809 | 0.764 | 0.715 | 0.708 | 0.723 | 0.768 | 0.95 | 0.926 | 0.962 | 0.946
NCI-H1395 | 0.851 | 0.859 | 0.806 | 0.701 | 0.786 | 0.442 | 0.405 | 0.473 | 0.45 | 0.452 | 0.724 | 0.734 | 0.737 | 0.714 | 0.691 | 1.12 | 1.01 | 0.978 | 0.603
NCI-H358 | 0.342 | 0.382 | 0.307 | 0.309 | 0.214 | 0.35 | 0.35 | 0.339 | 0.345 | 0.327 | 0.245 | 0.216 | 0.218 | 0.203 | 0.132 | 0.733 | 0.592 | 0.347 | 0.157
NCI-H838 | 0.294 | 0.281 | 0.267 | 0.24 | 0.279 | 0.497 | 0.558 | 0.557 | 0.483 | 0.551 | 0.469 | 0.441 | 0.434 | 0.514 | 0.44 | 1.03 | 1.01 | 0.74 | 0.149
